Legend:
[1] = tested on: rat hepatocytes; assay: Inhibition of gluconeogenesis (glucose production from lactate/pyruvate) in rat hepatocytes; format: cell-based; conditions: for IC50: from lactate/pyruvate, isolated rat hepatocytes
Procedure: Hepatocytes were prepared from overnight fasted Sprague-Dawley rats (250-300 g) according to the procedure of Berry and Friend (Berry, M. N., Friend, D. S., J. Cell. Biol. 1969, 43, 506-520) as modified by Groen (Groen, […]., Eur. J. Biochem. 1982, 122, 87-93). […] Incubations were carried out in a 95% oxygen, 5% carbon dioxide atmosphere in closed, 50-mL Falcon tubes submerged in a rapidly shaking water bath (37° C.). After 1 hour, an aliquot (0.25 mL) was removed, transferred to an Eppendorf tube and centrifuged. 50 μl of supernatant was then assayed for glucose content using a Sigma Glucose Oxidase kit as per the manufacturer's instructions.

[2] = tested on: 18 hours fasted Sprague Dawley rats; assay: Blood glucose lowering in fasted rats; format: in vivo, rat; conditions: 35, 45, and 60 mg/kg intraperitoneally, result in words
Procedure: The vehicle used for drug administration was dimethylsulfoxide. Blood samples were obtained from the tail vein of conscious animals just prior to injection and then at half-hourly intervals. Blood glucose was measured using a HemoCue Inc. glucose analyzer according to the instructions of the manufacturer.

[3] = tested on: rat hepatocytes; conditions: 10 μM prodrug, within 10 minutes
Procedure: Rat hepatocytes were prepared and incubated as in Example D, except that the test compound, 16.4, was added to yield a final concentration of 10 μM. Aliquots of the cell suspension were taken at 0, 5, 10, 20, 30, 45, and 60 minutes after drug exposure.

[4] = Estimation of the oral bioavailability of prodrugs of phosphonic acids (urinary recovery); format: in vivo, rat
Procedure: Prodrugs were dissolved in 10% ethanol/90% polyethylene glycol (mw 400) and administered by oral gavage at doses of approximately 20 or 40 mg/kg parent compound equivalents to 6-hour fasted, Sprague Dawley rats (220-240 g). The rats were subsequently placed in metabolic cages and urine was collected for 24 hours. The quantity of parent compound excreted into urine was determined by HPLC analysis. An ODS column eluted with a gradient from potassium phosphate buffer, pH 5.5 to acetonitrile was employed for these measurements. Detection was at 310-325 nm. […] Parent compounds were typically dissolved in dimethyl sulfoxide, and administered via the tail vein in animals that were briefly anesthetized with halothane.

[5] = target: T1, Adenylate Kinase (rabbit muscle) (Oryctolagus cuniculus, UniProt P00569); assay: AMP site/enzyme selectivity: adenylate kinase; format: biochemical; conditions: selectivity table; read-out: Adenylate Kinase (inh.)
T1 construct: purchased Sigma
T1 sequence (P00569 1-194): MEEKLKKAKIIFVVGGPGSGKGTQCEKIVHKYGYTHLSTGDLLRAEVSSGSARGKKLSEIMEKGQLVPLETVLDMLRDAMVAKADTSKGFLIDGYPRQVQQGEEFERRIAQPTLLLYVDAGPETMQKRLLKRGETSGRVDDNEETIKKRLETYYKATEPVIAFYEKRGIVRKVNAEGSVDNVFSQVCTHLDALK

[6] = tested on: rat hepatocytes; assay: Gluconeogenesis from dihydroxyacetone in rat hepatocytes: glucose production and fructose 1,6-bisphosphate accumulation; format: cell-based
Procedure: Isolated rat hepatocytes were prepared as described in Example D and incubated under the identical conditions described except that lactate/pyruvate was replaced by 10 mM dihydroxyacetone, a substrate which feeds into the gluconeogenic pathway at a step just prior to FBPase. Reactions were terminated by removing an aliquot (250 μL) of cell suspension and spinning it through a layer of oil (0.8 mL silicone/mineral oil, 4/1) into a 10% perchloric acid layer (100 μL). […] After thorough mixing and centrifugation, the supernatant was analyzed for glucose content as described in Example D, and also for fructose-1,6-bisphosphate. Fructose-1,6-bisphosphate was assayed spectrophotometrically by coupling its enzymatic conversion to glycerol 3-phosphate to the oxidation of NADH, which was monitored at 340 nm. Reaction mixtures (1 mL) consisted of 200 mM Tris-HCl, pH 7.4, 0.3 mM NADH, 2 units/mL glycerol 3-phosphate dehydrogenase, 2 units/mL triosephosphate isomerase, and 50-100 μl cell extract. After a 30 minute preincubation at 37° C., 1 unit/mL of aldolase was added and the change in absorbance measured until a stable value was obtained. 2 moles of NADH are oxidized in this reaction per mole of fructose-1,6-bisphosphate present in the cell extract.

[7] = tested on: 18 hours fasted Sprague-Dawley rats; assay: Blood glucose and liver fructose-1,6-bisphosphate accumulation in fasted rats; format: in vivo, rat; conditions: 20 mgs/kg intraperitoneally
[8] = Analysis of drug levels in plasma and liver of rats; format: in vivo, rat; conditions: 20 mgs/kg intraperitoneally, one hour post injection
[9] = tested on: Zucker Diabetic Fatty rats; assay: Blood glucose lowering in Zucker Diabetic Fatty rats; format: in vivo, rat; conditions: 50 mg/kg intraperitoneal, 2 hours post dose, 24-hour fasted
Procedure: Zucker Diabetic Fatty rats purchased at 7 weeks of age were used at age 16 weeks in the 24-hour fasted state. The rats were purchased from Genetics Models Inc. and fed the recommended Purina 5008 diet (6.5% fat). Their fasting hyperglycemia at 24 hours ranged from 150 mg/dL to 310 mg/dL blood glucose.
The stock solution was made up at […] in deionized water and adjusted to neutrality by dropwise, addition of 5 N NaOH. 5 control animals were dosed with saline. Blood glucose was measured at the time of dosing and 2 hours post dose as described in Example F.

[10] = tested on: Zucker Diabetic Fatty rats; assay: Inhibition of gluconeogenesis (14C-bicarbonate incorporation into glucose) in Zucker Diabetic Fatty rats; format: in vivo, rat; conditions: 50 mg/kg intraperitoneal
Procedure: Blood samples (0.6 mL) were obtained by cardiac puncture 10 and 20 minutes post tracer injection. Blood (0.5 mL) was diluted into 6 mL deionized water and protein precipitated by addition of 1 mL zinc sulfate (0.3 N) and 1 mL barium hydroxide (0.3 N). The mixture was centrifuged (20 minutes, 1000×g) and 5 mL of the resulting supernatant was then combined with 1 g of a mixed bed ion exchange resin (1 part AG 50W-X8, 100-200 mesh, hydrogen form and 2 parts of AG 1-X8, 100-200 mesh, acetate form) to separate ^14C-bicarbonate from ^14C-glucose. The slurry was shaken at room temperature for four hours and then allowed to settle. An aliquot of the supernatant (0.5 mL) was then counted in 5 mL scintillation cocktail.

[11] = target: T2, human liver FBPase (Homo sapiens, UniProt P09467); assay: Inhibition of human liver FBPase (coupled spectrophotometric assay); format: biochemical
T2 construct: made in house; host or cells: E. coli BL21
T2 sequence (P09467 2-338 limits assumed): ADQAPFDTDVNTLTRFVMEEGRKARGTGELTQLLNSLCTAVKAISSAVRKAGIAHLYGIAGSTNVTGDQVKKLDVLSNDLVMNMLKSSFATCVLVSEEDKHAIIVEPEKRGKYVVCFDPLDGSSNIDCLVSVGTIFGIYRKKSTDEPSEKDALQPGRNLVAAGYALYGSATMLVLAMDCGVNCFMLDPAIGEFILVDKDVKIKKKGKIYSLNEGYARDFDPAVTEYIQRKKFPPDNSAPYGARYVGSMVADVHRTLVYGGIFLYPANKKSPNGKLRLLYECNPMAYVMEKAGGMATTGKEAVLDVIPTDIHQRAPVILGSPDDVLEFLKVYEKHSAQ

[12] = target: T3, rat liver FBPase (Rattus norvegicus, UniProt P19112); assay: In vitro inhibition of rat liver FBPase; format: biochemical
T3 construct: made in house; host or cells: E. coli BL21
T3 sequence (P19112 2-363 limits assumed): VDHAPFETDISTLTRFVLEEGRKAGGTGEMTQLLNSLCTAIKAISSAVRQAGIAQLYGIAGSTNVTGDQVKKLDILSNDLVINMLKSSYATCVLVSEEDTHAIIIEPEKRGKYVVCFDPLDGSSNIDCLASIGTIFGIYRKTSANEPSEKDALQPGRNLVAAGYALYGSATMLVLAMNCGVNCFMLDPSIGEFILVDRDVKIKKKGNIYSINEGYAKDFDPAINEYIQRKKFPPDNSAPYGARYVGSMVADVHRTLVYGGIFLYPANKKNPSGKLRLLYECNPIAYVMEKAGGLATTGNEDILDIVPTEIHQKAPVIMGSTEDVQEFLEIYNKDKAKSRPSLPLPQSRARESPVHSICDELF
Procedure: (§1) Mouse liver FBPase was obtained by homogenizing freshly isolated mouse liver in 100 mM Tris-HCl buffer, pH 7.4, containing 1 mM EGTA, and 10% glycerol. […] This fraction was redissolved in the homogenization buffer and desalted on a PD-10 gel filtration column (Biorad) eluted with same. This partially purified fraction was used for enzyme assays. Both rat liver and mouse liver FBPase were assayed as described for human liver FBPase.

[13] = target: T4, mouse liver FBPase (Mus musculus, UniProt Q9QXD6); assay: In vitro inhibition of mouse liver FBPase; format: biochemical
T4 construct: This partially purified fraction was used for enzyme assays; from tissue; host or cells: mouse liver
T4 sequence (Q9QXD6 2-338 limits assumed): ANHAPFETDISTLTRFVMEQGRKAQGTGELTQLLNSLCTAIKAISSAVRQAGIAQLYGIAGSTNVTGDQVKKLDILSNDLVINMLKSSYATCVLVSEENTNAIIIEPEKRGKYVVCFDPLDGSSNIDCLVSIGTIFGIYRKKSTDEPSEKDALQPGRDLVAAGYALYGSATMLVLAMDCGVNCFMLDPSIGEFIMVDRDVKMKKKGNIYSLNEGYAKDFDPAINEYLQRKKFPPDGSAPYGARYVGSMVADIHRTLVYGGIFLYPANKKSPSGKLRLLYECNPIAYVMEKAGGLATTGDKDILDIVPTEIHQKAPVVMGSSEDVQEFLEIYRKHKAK
Procedure: as §1

[14] = target: T5, Human adenosine kinase (Homo sapiens, UniProt P55263); assay: AMP site/enzyme selectivity: adenosine kinase; format: biochemical; conditions: selectivity table; read-out: Adenosine Kinase (inh.)
T5 construct: made in house; host or cells: E. coli
T5 sequence (P55263 1-345 isoform P55263-2): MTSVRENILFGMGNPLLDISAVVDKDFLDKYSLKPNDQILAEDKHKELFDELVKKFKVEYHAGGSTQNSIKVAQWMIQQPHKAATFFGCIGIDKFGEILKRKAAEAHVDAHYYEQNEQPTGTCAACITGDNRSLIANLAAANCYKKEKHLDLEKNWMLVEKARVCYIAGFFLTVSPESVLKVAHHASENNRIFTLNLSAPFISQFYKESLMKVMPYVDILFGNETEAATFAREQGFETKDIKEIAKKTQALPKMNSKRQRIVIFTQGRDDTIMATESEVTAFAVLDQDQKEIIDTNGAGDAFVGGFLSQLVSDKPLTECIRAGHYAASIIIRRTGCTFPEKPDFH

[15] = target: T6, Glycogen Phosphorylase (rabbit muscle) (Oryctolagus cuniculus, UniProt P00489); assay: AMP site/enzyme selectivity: glycogen phosphorylase
T6 sequence (P00489 2-843 limits assumed): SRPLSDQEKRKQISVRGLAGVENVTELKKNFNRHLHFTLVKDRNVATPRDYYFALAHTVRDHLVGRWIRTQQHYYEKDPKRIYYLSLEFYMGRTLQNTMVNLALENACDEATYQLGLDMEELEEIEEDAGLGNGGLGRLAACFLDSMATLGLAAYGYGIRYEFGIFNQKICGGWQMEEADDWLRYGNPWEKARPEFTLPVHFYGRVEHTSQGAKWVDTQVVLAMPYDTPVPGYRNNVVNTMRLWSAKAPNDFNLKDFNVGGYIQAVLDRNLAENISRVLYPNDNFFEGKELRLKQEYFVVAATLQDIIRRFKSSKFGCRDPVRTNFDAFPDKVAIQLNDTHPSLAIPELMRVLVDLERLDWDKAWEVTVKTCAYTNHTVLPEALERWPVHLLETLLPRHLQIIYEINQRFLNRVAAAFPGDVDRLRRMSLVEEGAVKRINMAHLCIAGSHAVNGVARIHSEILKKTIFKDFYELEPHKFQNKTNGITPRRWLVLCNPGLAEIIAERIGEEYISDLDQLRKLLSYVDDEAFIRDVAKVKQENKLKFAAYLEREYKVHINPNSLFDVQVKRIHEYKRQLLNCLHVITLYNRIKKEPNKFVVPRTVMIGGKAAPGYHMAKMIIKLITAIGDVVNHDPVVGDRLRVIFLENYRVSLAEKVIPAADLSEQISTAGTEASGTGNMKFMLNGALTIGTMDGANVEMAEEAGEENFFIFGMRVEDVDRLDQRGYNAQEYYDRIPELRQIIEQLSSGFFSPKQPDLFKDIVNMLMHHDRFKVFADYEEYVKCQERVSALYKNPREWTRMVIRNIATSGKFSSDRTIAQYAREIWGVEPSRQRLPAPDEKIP
Procedure: To determine the selectivity of compounds towards FBPase, effects of FBPase inhibitors on 5 key AMP binding enzymes were measured using the assays described below: • Adenosine Kinase: Human adenosine kinase was purified from an E. coli expression system as described by Spychala et al. (Spychala, J., Datta, N. S., Takabayashi, K., Datta, M., Fox, I. H., Gribbin, T., and Mitchell, B. S. Proc. Natl. Acad. Sci. USA 1996, 93, 1232-1237). Activity was measured essentially as described by Yamada et al. (Yamada, Y., Goto, H., Ogasawara, N. Biochim. Biophys. Acta 1988, 660, 36-43.) with a few minor modifications. Assay mixtures contained 50 mM TRIS-maleate buffer, pH 7.0, 0.1% BSA, 1 mM ATP 1 mM MgCl2, 1.0 μM [U-^14C] adenosine (400-600 mCi/mmol) and varying duplicate concentrations of inhibitor. ^14C-AMP was separated from unreacted ^14C-adenosine by absorption to anion exchange paper (Whatman) and quantified by scintillation counting. • Adenosine Monophosphate Deaminase: Porcine heart AMPDA was purified essentially as described by Smiley et al. (Smiley, K. L., Jr, Berry, A. J., and Suelter, C. H. J. Biol. Chem. 1967, 242, 2502-2506) through the phosphocellulose step. Inhibition of AMPDA activity was determined at 37° C. in a 0.1 mL assay mixture containing inhibitor, ˜0.005U AMPDA, 0.1% bovine serum albumin, 10 mM ATP, 250 mM KCl, and 50 mM MOPS at pH 6.5. […]

SMILES: CC(C)C(=O)OCOP(=O)(OCOC(=O)C(C)C)c1ccc(-c2nc3c(N)ncnc3n2CC(C)(C)C)o1 [Compound 16.4, 6-Amino-9-neopentyl-8-(2-(5-diisobutyrylmethylphosphono)furanyl)-purine]
- IC50 [1]: 3 µM
- glucose production in rat hepatocytes (FIG. 11B) ([1]; result in words): inhibited glucose production
- blood glucose lowering (FIG. 6) [2]: profound glucose lowering
- intracellular concentration of compound 2.7 [3]: approximately 80 nmoles/g
- oral dose recovered in urine (as parent compound) ([4]; oral, approximately 20 mg/kg, 24 hours urine): 6.2%
- oral bioavailability ([4]; rat, estimated from urinary recovery vs intravenous parent): approximately 8%

SMILES: CC(C)(C)Cn1c(-c2ccc(P(=O)(O)O)o2)nc2c(N)ncnc21 [Compound 2.7, N^9-neopentyl-8-(2-(5-phosphono)furanyl)adenine]
- IC50 [5]: > 500 µM
- IC50 ([1]; Hepatocyte): 4.5 µM
- IC50 ([6]; Hepatocyte, 10 mM dihydroxyacetone, rat hepatocytes): ~5 µM
- accumulation of fructose-1,6-bisphosphate in hepatocytes (FIG. 4B) ([6]; dihydroxyacetone, result in words): dose-dependent accumulation of fructose-1,6-bisphosphate
- elevation of fructose-1,6-bisphosphate levels in liver ([7]; one hour post injection): 10 fold
- blood glucose after treatment ([7]; within one hour, lowered from 82±3): 28 ± 9.9 mg/dL
- drug level in liver [8]: 51.3 ± 10 nmol/g
- concentration at 1 h ([8]; Sprague-Dawley, rat, plasma, ip, 20 mg/kg, read-out: drug level in plasma): 38.5 ± 7 µM
- blood glucose lowered, average [9]: ~20%
- reduction of incorporation of 14C-bicarbonate into glucose [10]: 75%
- intravenous dose recovered in urine ([4]; intravenous, approximately 10 mg/kg, 24 hours urine): 76.8%

SMILES: Nc1ncnc2c1nc(-c1ccc(P(=O)(O)O)o1)n2CCc1ccccc1 [Compound 2.1, N^9-(2-phenethyl)-8-(2-(5-phosphono)furanyl)adenine]
- IC50 [11]: 5 µM
- IC50 [12]: 100 µM
- IC50 [13]: > 20 µM
- IC50 [14]: > 10 µM
- IC50 [5]: > 500 µM
- IC50 ([1]; Hepatocyte): 90 µM
- EC50 [15]: > 250 µM
